Experimental data: US20210038607A1, “OXADIAZOLYLTHIOPHENE DERIVATIVES USEFUL AS HISTONE DEACETYLASE INHIBITORS” (Karus Therapeutics Limited, priority 2018, published 2021)

What was measured:
Human HDAC1 = target: T1, Human HDAC1 (Homo sapiens, UniProt Q13547); experiment: HDAC1 biochemical assay, AMC-labeled peptide substrate; details: read-out: HDAC Isoform IC50 (nM) 1
T1 construct: full length with C-terminal His-tag and C-terminal FLAG-tag; His (C); FLAG (C); host or cells: baculovirus expression system
T1 sequence (Q13547 whole entry, canonical isoform): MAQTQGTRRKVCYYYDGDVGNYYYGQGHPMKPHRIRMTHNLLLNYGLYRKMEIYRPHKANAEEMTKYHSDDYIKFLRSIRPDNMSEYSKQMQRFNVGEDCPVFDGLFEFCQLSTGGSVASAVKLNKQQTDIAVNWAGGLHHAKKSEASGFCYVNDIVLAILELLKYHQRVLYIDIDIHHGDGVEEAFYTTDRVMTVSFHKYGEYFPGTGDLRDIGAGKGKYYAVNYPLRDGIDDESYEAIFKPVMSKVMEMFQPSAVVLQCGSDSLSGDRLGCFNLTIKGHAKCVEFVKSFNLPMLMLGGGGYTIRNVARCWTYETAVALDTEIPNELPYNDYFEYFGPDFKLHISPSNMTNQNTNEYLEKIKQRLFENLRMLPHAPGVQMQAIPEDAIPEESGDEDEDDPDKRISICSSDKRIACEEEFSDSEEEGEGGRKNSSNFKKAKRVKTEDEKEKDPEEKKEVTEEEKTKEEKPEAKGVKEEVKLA
Outline: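 Baculovirus-expressed full-length human HDAC1 with His and FLAG tags, 0.3 ng/ul, incubated 1 h at 30° C with compound and 50 μM RHKK(Ac)AMC in Tris pH 8.0 buffer with BSA and 1% DMSO. Developer then releases AMC from deacetylated substrate; fluorescence read at 360/460 nm.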

Human HDAC5 = target: T2, Human HDAC5 (Homo sapiens, UniProt Q9UQL6); experiment: HDAC5 biochemical assay, class IIa-specific substrate; details: read-out: HDAC Isoform IC50 (nM) 5
T2 construct: full length with C-terminal His tag, MW=51.1 kDa; His (C); host or cells: baculovirus expression system
T2 sequence (Q9UQL6 656-1122 limits assumed): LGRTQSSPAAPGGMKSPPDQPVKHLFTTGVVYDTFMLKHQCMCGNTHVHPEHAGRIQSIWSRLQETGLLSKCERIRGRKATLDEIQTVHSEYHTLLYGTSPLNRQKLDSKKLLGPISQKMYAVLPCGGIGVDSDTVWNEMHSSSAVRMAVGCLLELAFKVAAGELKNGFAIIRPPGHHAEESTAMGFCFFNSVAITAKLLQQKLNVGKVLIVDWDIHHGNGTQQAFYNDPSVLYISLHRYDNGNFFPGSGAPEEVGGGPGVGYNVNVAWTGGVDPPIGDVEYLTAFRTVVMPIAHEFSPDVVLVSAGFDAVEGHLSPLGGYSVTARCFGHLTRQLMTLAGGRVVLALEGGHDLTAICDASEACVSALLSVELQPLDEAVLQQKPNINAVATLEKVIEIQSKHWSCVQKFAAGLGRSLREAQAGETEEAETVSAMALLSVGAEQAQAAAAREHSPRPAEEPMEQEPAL
Outline: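 Full-length C-terminal His-tagged HDAC5 from baculovirus (0.05 ng/ul) incubated 30 min at room temperature with 50 μM Boc-Lys(trifluoroacetyl)-AMC and compound, Tris pH 8.0 buffer with BSA, 1% DMSO. Developer then releases AMC; fluorescence 360/460 nm.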

Recombinant human HDAC6 = target: T3, Recombinant human HDAC6 (Homo sapiens, UniProt Q9UBN7); experiment: HDAC6 biochemical assay, AMC-labeled peptide substrate; details: HDAC6; read-out: HDAC Isoform IC50 (nM) 6
T3 construct: full length, MW=159 kDa; GST (N); host or cells: Sf9 insect cells (baculovirus)
T3 sequence (Q9UBN7 1-1215): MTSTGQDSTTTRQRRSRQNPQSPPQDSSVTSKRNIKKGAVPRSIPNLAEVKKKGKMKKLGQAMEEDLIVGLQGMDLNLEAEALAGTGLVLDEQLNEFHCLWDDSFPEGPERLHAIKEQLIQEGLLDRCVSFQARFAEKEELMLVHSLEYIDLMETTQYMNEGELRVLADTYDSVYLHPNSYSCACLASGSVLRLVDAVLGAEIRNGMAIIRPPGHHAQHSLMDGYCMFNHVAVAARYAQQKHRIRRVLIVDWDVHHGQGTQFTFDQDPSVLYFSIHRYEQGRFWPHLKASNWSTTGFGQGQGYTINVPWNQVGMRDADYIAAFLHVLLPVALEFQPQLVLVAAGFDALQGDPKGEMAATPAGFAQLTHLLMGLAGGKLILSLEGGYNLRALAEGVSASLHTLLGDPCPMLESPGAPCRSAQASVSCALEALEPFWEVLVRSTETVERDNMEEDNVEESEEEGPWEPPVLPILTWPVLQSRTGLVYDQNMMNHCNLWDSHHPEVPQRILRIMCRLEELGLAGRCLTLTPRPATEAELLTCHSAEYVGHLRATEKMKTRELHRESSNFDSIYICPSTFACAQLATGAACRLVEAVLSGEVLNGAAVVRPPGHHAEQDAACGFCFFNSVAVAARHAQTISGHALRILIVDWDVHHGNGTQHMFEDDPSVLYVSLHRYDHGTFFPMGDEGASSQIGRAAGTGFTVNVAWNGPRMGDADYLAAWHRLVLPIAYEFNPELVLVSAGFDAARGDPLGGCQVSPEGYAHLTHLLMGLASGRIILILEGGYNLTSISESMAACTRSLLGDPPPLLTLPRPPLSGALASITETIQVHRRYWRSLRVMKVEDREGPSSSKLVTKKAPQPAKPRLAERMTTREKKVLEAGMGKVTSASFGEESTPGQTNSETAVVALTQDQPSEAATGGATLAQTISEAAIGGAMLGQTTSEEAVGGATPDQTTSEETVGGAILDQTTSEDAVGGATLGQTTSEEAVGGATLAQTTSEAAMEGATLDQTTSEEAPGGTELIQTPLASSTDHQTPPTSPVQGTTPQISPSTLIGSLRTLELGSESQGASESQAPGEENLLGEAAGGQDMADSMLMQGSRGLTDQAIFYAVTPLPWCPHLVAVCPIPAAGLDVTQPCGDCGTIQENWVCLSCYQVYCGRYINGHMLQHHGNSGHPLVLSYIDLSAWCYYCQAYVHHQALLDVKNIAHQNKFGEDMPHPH
Outline: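 Two-step fluorogenic read-out: enzyme deacetylates 50 μM RHKK(Ac)AMC for 1 h at 30° C in pH 8.0 Tris buffer with BSA and 1% DMSO, then developer cleavage gives signal at Ex 360/Em 460. Enzyme: 0.3 ng/ul recombinant full-length human HDAC6, GST-tagged, Sf9-expressed.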

[1] = target: T4, Complex of human HDAC3 and human NCOR2 (Homo sapiens, UniProt O15379); experiment: HDAC3 biochemical assay, AMC-labeled peptide substrate; details: read-out: HDAC Isoform IC50 (nM) 3
T4 construct: full length with C-terminal His tag, MW=49.7 kDa; His (C); host or cells: baculovirus expression system (co-expressed)
T4 sequence (O15379 whole entry, canonical isoform): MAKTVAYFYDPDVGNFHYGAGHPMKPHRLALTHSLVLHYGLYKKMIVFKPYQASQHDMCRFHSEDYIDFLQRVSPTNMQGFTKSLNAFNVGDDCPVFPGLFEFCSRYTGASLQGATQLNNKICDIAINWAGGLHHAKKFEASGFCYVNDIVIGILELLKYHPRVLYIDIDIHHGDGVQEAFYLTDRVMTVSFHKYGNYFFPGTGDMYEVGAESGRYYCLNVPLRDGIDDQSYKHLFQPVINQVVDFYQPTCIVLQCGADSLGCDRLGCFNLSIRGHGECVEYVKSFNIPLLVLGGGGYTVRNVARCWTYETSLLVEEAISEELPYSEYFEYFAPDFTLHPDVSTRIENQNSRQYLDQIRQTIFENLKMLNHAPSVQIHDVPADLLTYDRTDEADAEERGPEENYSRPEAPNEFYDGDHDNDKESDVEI
T4 sequence (Q9Y618 395-489 partner limits assumed): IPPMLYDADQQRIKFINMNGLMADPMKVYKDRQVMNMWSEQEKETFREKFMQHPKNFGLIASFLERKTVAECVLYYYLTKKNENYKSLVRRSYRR
Outline: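 Baculovirus-coexpressed His-tagged full-length HDAC3 with GST-NCOR2 (aa 395-489), 0.1 ng/ul, deacetylates 50 μM RHKK(Ac)AMC in Tris-HCl pH8.0 with BSA and 1% DMSO, 1 h at 30° C. Developer then cleaves deacetylated substrate; fluorescence read at 360/460 Ex/Em.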

Row | IC50 (Human HDAC1) [nM] | IC50 (Human HDAC5) [nM] | IC50 (Recombinant human HDAC6) [nM] | IC50 [1] [nM] | Compound
1 | > 10000 | ≤ 10000 | ≤ 500 | > 10000 | FC(F)(F)c1nc(-c2ccc(CN(c3ccccn3)c3cnccn3)s2)no1 [Example V, N-(Pyridin-2-yl)-N-({5-[5-(trifluoromethyl)-1,2,4-oxadiazol-3-yl]thiophen-2-yl}methyl)pyrazin-2-amine]
2 | ≤ 10000 | ≤ 1000 | ≤ 500 | ≤ 10000 | FC(F)(F)c1nc(-c2ccc(CN(c3cnccn3)c3ccc(N4CCCC4)nn3)s2)no1 [Example DI, N-(Pyrazin-2-yl)-6-(pyrrolidin-1-yl)-N-({5-[5-(trifluoromethyl)-1,2,4-oxadiazol-3-yl]thiophen-2-yl}methyl)pyridazin-3-amine]
3 | ≤ 10000 | ≤ 500 | ≤ 500 | > 10000 | CS(=O)(=O)c1ccc(N(Cc2ccc(-c3noc(C(F)(F)F)n3)s2)c2cnccn2)nn1 [Example DL, 6-Methanesulfonyl-N-(pyrazin-2-yl)-N-({5-[5-(trifluoromethyl)-1,2,4-oxadiazol-3-yl]thiophen-2-yl}methyl)pyridazin-3-amine]

More lines, now with the values behind:

Row | Compound | IC50 (Human HDAC1) [nM] | IC50 (Human HDAC5) [nM] | IC50 (Recombinant human HDAC6) [nM] | IC50 [1] [nM]
4 | FC(F)(F)c1ccc(N(Cc2ccc(-c3noc(C(F)(F)F)n3)s2)c2cnccn2)nn1 [Example DH, N-(Pyrazin-2-yl)-6-(trifluoromethyl)-N-({5-[5-(trifluoromethyl)-1,2,4-oxadiazol-3-yl]thiophen-2-yl}methyl)pyridazin-3-amine] | ≤ 10000 | ≤ 1000 | ≤ 500 | ≤ 10000
5 | FC(F)(F)c1nc(-c2ccc(CN(c3cncnc3)c3cnccn3)s2)no1 [Example CR, N-(Pyrazin-2-yl)-N-({5-[5-(trifluoromethyl)-1,2,4-oxadiazol-3-yl]thiophen-2-yl}methyl)pyrimidin-5-amine] | > 10000 | ≤ 500 | ≤ 500 | > 10000
6 | CS(=O)(=O)c1nccc(N(Cc2ccc(-c3noc(C(F)(F)F)n3)s2)c2cnccn2)n1 [Example CE, 2-Methanesulfonyl-N-(pyrazin-2-yl)-N-({5-[5-(trifluoromethyl)-1,2,4-oxadiazol-3-yl]thiophen-2-yl}methyl)pyrimidin-4-amine] | ≤ 10000 | ≤ 1000 | ≤ 500 | 
7 | FC(F)(F)c1nc(-c2ccc(CN(c3ccncn3)c3cnccn3)s2)no1 [Example BZ, N-(Pyrazin-2-yl)-N-({5-[5-(trifluoromethyl)-1,2,4-oxadiazol-3-yl]thiophen-2-yl}methyl)pyrimidin-4-amine] | > 10000 | ≤ 500 | ≤ 500 | > 10000
